Results published in patent US20260263551A1, “TREATING CONDITIONS WITH HYPOGLYCEMIA ASSOCIATED WITH HYPERINSULINEMIA” (RESILIUN B.V., priority 2022, published 2026).
Where a SMILES comes first, the peptide text is derived from it.

Key:
[1] = in vivo; cited from earlier work
mTOR = conditions: piglets; cited from earlier work
Na+, K+-ATPase [2] = conditions: rat renal tubular segments; peptides tested at 5×10^-7 mol/l; cited from earlier work
Na+, K+-ATPase [3] = conditions: purified preparation of Na+,K+-ATPase; cited from earlier work
[4] = test system: human pulmonary microvascular endothelial cells (Hpmec); assay: Microvascular angiogenesis (sprouting) assay in Matrigel; assay type: cell-based; conditions: t=16, 24 and 40h (P=0.48, 0.011 and 0.032)
Excerpt: Microvascular angiogenesis assay of human pulmonary microvascular endothelial cells grown in Matrigel as determinant of ERC-reactivity and in response to increasing concentrations of GXXP-peptides 3, 6 and 8, (VGVAPGVGVAPGVGVAPG, QVGQVELGGGPGAGSLQP and GAYPGAPGAYPGAPAPGV, taken from the exon 24 region of human elastin, from the mid-portion of human C-peptide, and from the N-terminal portion of human Galectin-3, FIGS. 4a, 4b and 4c, respectively). Data shown are total tube length measurements and total branch length measurements at t=24 h. * p<0.05; ** p<0.01; *** p<0.001. At 4 h no angiogenic activity of the various peptides was as yet observed.
As measuring insulin resistance in vitro is a cumbersome feat, the effect of three elastin fragment peptides and related GXXP-peptides on endothelial cell sprouting were assessed instead. Endothelial cells (Hpmec, n=4) were serum starved for 24 hours, trypsinised and seeded in growth factor-reduced Matrigel. […] Sprouting by means of mean total tube length and mean total branch length per field of view were quantified with ImageJ software. […]
Pictures were analyzed using the plug-in angiogenesis analyzer in ImageJ. […]

Na+, K+-ATPase [5] = conditions: cited from earlier work
[6] = test system: fibroblasts and monocytes; conditions: cited from earlier work
human skin fibroblast = conditions: cited from earlier work
[7] = infants >2 years of age; cited from earlier work
[8] = single infusion, healthy adults; cited from earlier work

In the case of `C[C@@H](O)[C@@H]1NC(=O)[C@H](CCCCN)NC(=O)[C@@H](Cc2c[nH]c3ccccc23)NC(=O)[C@H](Cc2ccccc2)NC(=O)[C@@H](NC(=O)[C@H](N)Cc2ccccc2)CSSC[C@@H](C(=O)N[C@H](CO)[C@@H](C)O)NC1=O` [octreotide], the half-life [1] is listed as “around 100 min”.

In the case of `C[C@H](N)C(=O)N[C@@H](CCC(N)=O)C(=O)O` [AQ, Alanyl-glutamine] (H-Ala-Gln-OH), the “autophagy / mTOR modulation” value (mTOR) is given as “autophagy-inhibition”.

In the case of EVARQ, the “activity relative to intact C-peptide” value (Na+, K+-ATPase [2]) is given as 100% and the “direct activation of isolated ATPase” value (Na+, K+-ATPase [3]) is given as “No measurable activation”.

For `CC(=O)N[C@H]1[C@H]([C@H](O)[C@H](O)CO)OC(C(=O)O)=C[C@@H]1O` [DANA, 2,3-dehydro-2-deoxy-N-acetylneuraminic acid], the “effect on the angiogenic effects of peptide 3” value [4] was “significantly potentiated”.

In the case of EGSLQ, the “activity relative to intact C-peptide” value (Na+, K+-ATPase [2]) is listed as 75% and the “activity relative to the intact molecule” value (Na+, K+-ATPase [5]; HRTCs) is listed as 57%.

In the case of “ELGGGPEAG [PG-domain peptide of rat C-peptide 1]”, the “direct activation of isolated ATPase” value (Na+, K+-ATPase [3]) is given as “No measurable activation”.

For “human C-peptide: cleavage product of the proinsulin molecule (RREAEDLQVGQVELGGGPGAGSLQPLALEGSLQKR)”, the “stimulation of 86Rb+ uptake” value (Na+, K+-ATPase [5]; 5 nM, 37° C., 10 min, HRTCs) is listed as 40%.

For “VGVAPG [Chemotactic Domain of Elastin, Bachem product number 4010536]”, the chemotactic activity [6] is given as “chemotactic for fibroblasts and monocytes” and the fibroblast proliferation (human skin fibroblast) is given as “stimulated human skin fibroblast proliferation”.

For `CN(C)CCCn1cc(C2=C(c3c[nH]c4ccccc34)C(=O)NC2=O)c2ccccc21` [G F109203X], the “effect on C-peptide stimulation of 86Rb+ uptake” value (Na+, K+-ATPase [5]; 1 μM preincubation, PKC inhibitor) is listed as “abolished”.

For `COc1cccc(-c2cc(=O)c3ccccc3o2)c1N` [PD98059], the “effect on C-peptide-stimulated Na+,K+-ATPase activation, α1-subunit phosphorylation and translocation to BLM” value (Na+, K+-ATPase [5]; 20 μM, MEK1/2 inhibitor) is given as “abolished”.

B1: XOMA 358: antibody XOMA 358 (aka RZ358), monoclonal antibody given by infusion (antibody, chains of the INN, looked up, V domains shown)
VH: EVQLVETGGGVVQPGRSLRLSCAASGFTFSSYAMHWVRQAPGKGLEWYAVISYDGSNKYYADSVKGRFTISRDNSKNTLYLQMNSLRAEDTAVYYCARHEWGFGMDVWGQGTTVTVSS
VL: DVVMTQSPLSLSVTLGQPASISCRSSLSLVYGDENTYLNWFQQRPGQSPRRLLYKVSDRDSGVPDRFSGSGSGTDFTLKISRVEADDVGVYYCMQGTHWPYTFGQGTKLEIK
For B1, the hypoglycemia [7] is given as “reduction of hypoglycemia” and the insulin sensitivity [8] is given as “dose-dependent reduction in insulin sensitivity”.
